This note sets out measurements from patent US9951065B2 (Gilead Sciences, Inc., priority 2015, dated 2018).

Bounds are passed on as bounds.

The target of the experiment is T1, IDO1 (Homo sapiens, UniProt P14902).
T1 construct: HeLa cells were treated with a test compound in the presence of IFNγ, which induces IDO1 expression; host or cells: H1-HeLa cells, IDO1 induced with IFNγ
T1 sequence (P14902 whole entry): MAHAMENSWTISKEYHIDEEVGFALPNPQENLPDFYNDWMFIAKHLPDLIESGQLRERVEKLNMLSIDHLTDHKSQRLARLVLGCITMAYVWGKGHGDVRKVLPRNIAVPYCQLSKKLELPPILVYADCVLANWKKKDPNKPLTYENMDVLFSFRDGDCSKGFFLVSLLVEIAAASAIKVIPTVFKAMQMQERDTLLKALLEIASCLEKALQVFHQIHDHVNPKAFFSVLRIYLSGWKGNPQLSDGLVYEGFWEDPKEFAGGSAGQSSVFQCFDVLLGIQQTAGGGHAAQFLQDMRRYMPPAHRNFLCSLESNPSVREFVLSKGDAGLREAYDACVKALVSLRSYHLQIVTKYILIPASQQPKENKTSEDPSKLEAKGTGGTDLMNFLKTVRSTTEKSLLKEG
The experiment is described as follows: Cell-based (HeLa) assay for measurement of IDO1 inhibition (kynurenine levels in supernatant after IFNγ induction). Conditions: HeLa cells, IFNγ-induced IDO1, kynurenine in supernatant, 48 hour incubation; geometric mean of a minimum of four determinations. An outline of the steps:
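IDO1 activity is read as kynurenine released into the medium, detected with Ehrlich's reagent (p-dimethylaminobenzaldehyde) at 480 nm after TCA treatment. HeLa cells were exposed 48 h to compounds in 0.5% DMSO alongside IFNγ induction. Values normalized to no-IFNγ and IFNγ controls; four-parameter EC50 given as geometric mean of ≥4 determinations.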
The term EC50 denotes the concentration giving half of the maximal effect. Read a high EC50 as lower potency in that assay. Molecule `CN1CCOCC1CNc1nc2c(F)c(F)cc(/C(=N/O)Nc3ccc(F)c(Cl)c3)c2[nH]1` (stereo not drawn) [Example 429, N-(3-chloro-4-fluorophenyl)-4,5-difluoro-N′-hydroxy-2-(((4-methylmorpholin-3-yl)methyl)amino)-1H-benzo[d]imidazole-7-carboximidamide] gave an EC50 of 1350 nM. In other words, the single-digit micromolar range. The figure for `CN(C)CCNc1nc2c(F)c(F)cc(/C(=N/O)Nc3cccc(Br)c3)c2[nH]1` [Example 430, N-(3-bromophenyl)-2-((2-(dimethylamino)ethyl)amino)-4,5-difluoro-N′-hydroxy-1H-benzo[d]imidazole-7-carboximidamide] is 180 nM; for `CN(C)CCNc1nc2c(F)c(F)cc(/C(=N/O)Nc3cccc(Cl)c3)c2[nH]1` [Example 431, N-(3-chlorophenyl)-2-((2-(dimethylamino)ethyl)amino)-4,5-difluoro-N′-hydroxy-1H-benzo[d]imidazole-7-carboximidamide] it is 139 nM. Regarding `CN(C)CCNc1nc2c(F)c(F)cc(/C(=N/O)Nc3ccc(F)c(Br)c3)c2[nH]1` [Example 432, N-(3-bromo-4-fluorophenyl)-2-((2-(dimethylamino)ethyl)amino)-4,5-difluoro-N′-hydroxy-1H-benzo[d]imidazole-7-carboximidamide], the EC50 was 253 nM. Against the preceding molecule, the EC50 is about 1.8-fold higher. In the case of `O/N=C(\Nc1ccc(F)c(Cl)c1)c1cc(F)c(F)c2nc(NCCCN3CCOCC3)[nH]c12` [Example 433, N-(3-chloro-4-fluorophenyl)-4,5-difluoro-N′-hydroxy-2-((3-morpholinopropyl)amino)-1H-benzo[d]imidazole-7-carboximidamide] it was 882 nM. The figure for `O/N=C(\Nc1ccc(F)c(Cl)c1)c1cc(F)c(F)c2nc(NCCCN3CCCC3)[nH]c12` [Example 434, N-(3-chloro-4-fluorophenyl)-4,5-difluoro-N′-hydroxy-2-((3-(pyrrolidin-1-yl)propyl)amino)-1H-benzo[d]imidazole-7-carboximidamide] is 1240 nM; for `CN1CC(N)[C@H](Nc2nc3c(F)c(F)cc(/C(=N/O)Nc4ccc(F)c(Cl)c4)c3[nH]2)C1` (stereo partly drawn) [Example 435, 2-(((3R)-4-amino-1-methylpyrrolidin-3-yl)amino)-N-(3-chloro-4-fluorophenyl)-4,5-difluoro-N′-hydroxy-1H-benzo[d]imidazole-7-carboximidamide] it is 1810 nM; for `CN(C)C(CNc1nc2c(F)c(F)cc(/C(=N/O)Nc3ccc(F)c(Cl)c3)c2[nH]1)c1ccccc1` (stereo not drawn) [Example 436, N-(3-chloro-4-fluorophenyl)-2-((2-(dimethylamino)-2-phenylethyl)amino)-4,5-difluoro-N′-hydroxy-1H-benzo[d]imidazole-7-carboximidamide] it is 2020 nM. On to `CN(C)[C@@H]1CCCC[C@H]1Nc1nc2c(F)c(F)cc(/C(=N/O)Nc3ccc(F)c(Cl)c3)c2[nH]1` [Example 437, N-(3-chloro-4-fluorophenyl)-2-(((1R,2R)-2-(dimethylamino)cyclohexyl)amino)-4,5-difluoro-N′-hydroxy-1H-benzo[d]imidazole-7-carboximidamide], for which the EC50 came to 998 nM. This EC50 lies about 2-fold lower than the previous one. In the case of `CN(C)C1(CNc2nc3c(F)c(F)cc(/C(=N/O)Nc4ccc(F)c(Cl)c4)c3[nH]2)CCCC1` [Example 438, N-(3-chloro-4-fluorophenyl)-2-(((1-(dimethylamino)cyclopentyl)methyl)amino)-4,5-difluoro-N′-hydroxy-1H-benzo[d]imidazole-7-carboximidamide] it was 838 nM; in that of `CN(C)[C@H]1CCC[C@H](Nc2nc3c(F)c(F)cc(/C(=N/O)Nc4ccc(F)c(Cl)c4)c3[nH]2)C1` [Example 439, N-(3-chloro-4-fluorophenyl)-2-(((1S,3S)-3-(dimethylamino)cyclohexyl)amino)-4,5-difluoro-N′-hydroxy-1H-benzo[d]imidazole-7-carboximidamide], 6800 nM; in that of `CN(C)[C@@H]1CCC[C@H](Nc2nc3c(F)c(F)cc(/C(=N/O)Nc4ccc(F)c(Cl)c4)c3[nH]2)C1` [Example 440, N-(3-chloro-4-fluorophenyl)-2-(((1S,3R)-3-(dimethylamino)cyclohexyl)amino)-4,5-difluoro-N′-hydroxy-1H-benzo[d]imidazole-7-carboximidamide], 6660 nM. The figure for `CN(C)C1(CNc2nc3c(F)c(F)cc(/C(=N/O)Nc4ccc(F)c(Cl)c4)c3[nH]2)CCC1` [Example 441, N-(3-chloro-4-fluorophenyl)-2-(((1-(dimethylamino)cyclobutyl)methyl)amino)-4,5-difluoro-N′-hydroxy-1H-benzo[d]imidazole-7-carboximidamide] is more than 10000 nM.

In the case of `CN1CCC(Nc2nc3c(F)c(F)cc(/C(=N/O)Nc4ccc(F)c(Cl)c4)c3[nH]2)CC1` [Example 442, N-(3-chloro-4-fluorophenyl)-4,5-difluoro-N′-hydroxy-2-((1-methylpiperidin-4-yl)amino)-1H-benzo[d]imidazole-7-carboximidamide], the EC50 amounted to 2880 nM. The figure for `CN1CCCC(Nc2nc3c(F)c(F)cc(/C(=N/O)Nc4ccc(F)c(Cl)c4)c3[nH]2)C1` (stereo not drawn) [Example 443, N-(3-chloro-4-fluorophenyl)-4,5-difluoro-N′-hydroxy-2-((1-methylpiperidin-3-yl)amino)-1H-benzo[d]imidazole-7-carboximidamide] is 389 nM. The figure for `CN(C)[C@H]1CCCC[C@@H]1Nc1nc2c(F)c(F)cc(/C(=N/O)Nc3ccc(F)c(Cl)c3)c2[nH]1` [Example 444, N-(3-chloro-4-fluorophenyl)-2-(((1S,2S)-2-(dimethylamino)cyclohexyl)amino)-4,5-difluoro-N′-hydroxy-1H-benzo[d]imidazole-7-carboximidamide] is 3140 nM.

The molecule `O/N=C(\Nc1ccc(F)c(Cl)c1)c1cc(F)c(F)c2nc(N[C@H]3CCCNC3)[nH]c12` [Example 445, (S)—N-(3-chloro-4-fluorophenyl)-4,5-difluoro-N′-hydroxy-2-(piperidin-3-ylamino)-1H-benzo[d]imidazole-7-carboximidamide] came in with an EC50 of 1950 nM. This EC50 is about 1.6-fold lower than that of the molecule before. The figure for `O/N=C(\Nc1ccc(F)c(Cl)c1)c1cc(F)c(F)c2nc(N[C@@H]3CCCNC3)[nH]c12` [Example 446, (R)—N-(3-chloro-4-fluorophenyl)-4,5-difluoro-N′-hydroxy-2-(piperidin-3-ylamino)-1H-benzo[d]imidazole-7-carboximidamide] is 1490 nM; for `CN1CC[C@H](Nc2nc3c(F)c(F)cc(/C(=N/O)Nc4ccc(F)c(Cl)c4)c3[nH]2)C1` [Example 447, (S)—N-(3-chloro-4-fluorophenyl)-4,5-difluoro-N′-hydroxy-2-((1-methylpyrrolidin-3-yl)amino)-1H-benzo[d]imidazole-7-carboximidamide] it is 325 nM; for `CN(C)CC(O)CNc1nc2c(F)c(F)cc(/C(=N/O)Nc3ccc(F)c(Cl)c3)c2[nH]1` (stereo not drawn) [Example 448, N-(3-chloro-4-fluorophenyl)-2-((3-(dimethylamino)-2-hydroxypropyl)amino)-4,5-difluoro-N′-hydroxy-1H-benzo[d]imidazole-7-carboximidamide] it is 1120 nM. The figure for `CN1CCN(CCNc2nc3c(F)c(F)cc(/C(=N/O)Nc4ccc(F)c(Cl)c4)c3[nH]2)CC1=O` [Example 449, N-(3-chloro-4-fluorophenyl)-4,5-difluoro-N′-hydroxy-2-((2-(4-methyl-3-oxopiperazin-1-yl)ethyl)amino)-1H-benzo[d]imidazole-7-carboximidamide] is 6250 nM.
